Results on one compound are retold here after patent US7019034B2, “Compositions and methods for reducing serum glucose and triglyceride levels in diabetic mammals” (Allergan, Inc., priority 2003, dated 2006).

Series [1] has as its target T1, RARα (Homo sapiens, UniProt P10276).
T1 sequence (P10276 1-462): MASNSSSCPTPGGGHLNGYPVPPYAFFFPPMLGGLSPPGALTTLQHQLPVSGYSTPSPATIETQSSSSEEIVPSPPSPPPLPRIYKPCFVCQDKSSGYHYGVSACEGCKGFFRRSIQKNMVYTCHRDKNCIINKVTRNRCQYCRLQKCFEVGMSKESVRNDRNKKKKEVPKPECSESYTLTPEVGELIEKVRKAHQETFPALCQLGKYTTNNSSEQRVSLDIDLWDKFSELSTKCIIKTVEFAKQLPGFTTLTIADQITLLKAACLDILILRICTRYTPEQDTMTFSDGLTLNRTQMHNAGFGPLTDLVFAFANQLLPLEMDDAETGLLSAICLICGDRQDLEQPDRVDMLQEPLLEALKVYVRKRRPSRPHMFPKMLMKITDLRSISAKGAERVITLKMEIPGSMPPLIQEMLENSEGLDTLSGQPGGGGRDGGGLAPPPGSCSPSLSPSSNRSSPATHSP
The experiment in a line: chimeric receptor transactivation assay, RARα. The format is cell-based. The text has this: The specification of U.S. Pat. No. 5,455,265 is hereby expressly incorporated by reference.
Table 1 discloses the activity of certain exemplary compounds of the invention in the above-described receptor transactivation and binding assays. Particularly, the transactivation data pertaining to activation of the RAR receptors were obtained in the chimeric assay, and the transactivation data pertaining to the activation of RXR receptors were obtained in the holoreceptor assay.
Efficacy in a transactivation assay is expressed as a percentage of the maximum potency attained by the compound compared to a standard which, in this case, is the compound named (2E,4E,1′S,2′S)-3-methyl-5-[2′-methyl-2′-(5,5,8,8-tetramethyl-5,6,7,8-tetrahydro-naphthalen-2-yl)-cyclopropyl]-penta-2,4-dienoic acid.
(§1) In Table 1 NA stands for not active at all as an agonist. ND stands for not determined. The first row of numbers pertaining to each compound is the measured EC50 number. […] The third row of numbers pertaining to each compound is the binding Ki number.

The target in series [2] is T2, RXRγ (UniProt P28705).
T2 sequence (P28705 1-463): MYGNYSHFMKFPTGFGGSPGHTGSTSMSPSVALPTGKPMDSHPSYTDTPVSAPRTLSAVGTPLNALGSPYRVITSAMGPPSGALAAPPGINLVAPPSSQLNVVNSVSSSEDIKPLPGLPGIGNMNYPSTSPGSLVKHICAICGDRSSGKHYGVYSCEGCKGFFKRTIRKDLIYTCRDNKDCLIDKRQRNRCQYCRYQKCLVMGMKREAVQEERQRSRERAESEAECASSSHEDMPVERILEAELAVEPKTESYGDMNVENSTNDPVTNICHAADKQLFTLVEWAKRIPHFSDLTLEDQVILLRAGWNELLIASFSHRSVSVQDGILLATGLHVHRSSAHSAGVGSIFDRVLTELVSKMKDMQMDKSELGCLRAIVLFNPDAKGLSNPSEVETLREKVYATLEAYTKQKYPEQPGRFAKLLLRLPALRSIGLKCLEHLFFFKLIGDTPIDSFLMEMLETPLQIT
The experiment in a line: holoreceptor transactivation assay, RXRγ. The format is cell-based.
Description: The results obtained in this assay are expressed in EC50 numbers, as they are also in the chimeric receptor transactivation assay. The results of the ligand binding assay are expressed in Ki numbers.
Particularly, the transactivation data pertaining to activation of the RAR receptors were obtained in the chimeric assay, and the transactivation data pertaining to the activation of RXR receptors were obtained in the holoreceptor assay.
as §1

The test system of series [3] is diabetic db/db mice. The experiment in a line: serum glucose in diabetic db/db mice, 7 days oral dosing. The format is in vivo. Particulars: for Glucose: 50 mg/kg once daily oral gavage, mean +/- SD. As to the method: (§2) Effects of RXR agonists on serum glucose and triglyceride were studied in diabetic db/db mice. […] Briefly, animals were dosed once daily by oral gavage using corn oil vehicle for a period of 7 consecutive days. Serum samples were collected on day 1 (first day of dosing) and day 7 at hour 0 (immediately prior to dosing) and hour 3 (approximately 3 hours after dosing). Serum glucose and triglyceride levels of these samples were measured as described in the reference manuals: Glucose/HK. Boehringer Mannheim Corporation, 9115 Hague Road, Indianapolis, Ind., USA and Triglycerides/GPO. Roche Diagnostics Corporation, 9115 Hague Road, Indianapolis, Ind., USA, expressly incorporated herein. Only those animals with glucose levels of higher than 300 mg/dl at 0 hour on day 1 were considered as diabetic and included in data analysis.
(§3) A measured amount of dosing solution was withdrawn into a metal feeding tube attached to a marked syringe. Animals were restrained by grasping of their back skin while the feeding tube was gently inserted into their mouth and into esophagus. A fixed amount of the dosing solution was displaced into the esophagus/stomach of the animal by pushing the plunger of the syringe. Serum samples were collected from the retro-orbital sinus while the animals were anesthetized. These samples were analyzed by using commercially available kits from Boehringer Manheim for their glucose levels and Roche Diagnostics for their triglyceride levels in a Boehringer Manheim Hatachi Clinical Chemistry Analyzer.
(§4) For glucose assay, an enzymatic reaction using hexokinase and glucose-6-phosphodehydrogenase to catalyze glucose to gluconate-6phosphate and NADPH was employed. The amount of NADPH formed during these reactions was equivalent to the amount of glucose in the serum and was measured with a spectrophotometer. For triglycerides, a series of enzymatic reactions which included lipase, glycerol kinase and glycerol phosphate oxidase to formed dihydroacetone phosphate and peroxidase. The peroxidase produced catalyzed a reaction between peroxide and 4-aminophenazone and 4-chlorophenol in a Trinder reaction to generate a color change. This color change was measured by a spectrophotometer and reflected the amount of triglyceride in the sample.

For series [4], the system named is diabetic db/db mice. The experiment in a line: serum triglycerides in diabetic db/db mice, 7 days oral dosing. The format is in vivo. Particulars: for Triglycerides: 50 mg/kg once daily oral gavage, mean +/- SD. As to the method:
as §2, §3, §4

Series [5] relates to young db/db mice. The experiment in a line: serum thyroxine (T4) in young db/db mice, 14 days oral dosing. The format is in vivo. As to the method: In another study the efficacy of RXR agonists in the prevention of diabetes was tested in young db/db mice. […] Serum samples were analyzed by using commercially available kits from Boehring Manheim for their thyroxine (T4) levels in a Boehringer Manheim Hatachi Clinical Chemistry Analyzer as described in the reference manual of Boehringer Mannheim Corporation, 9115 Hague Road, Indianapolis, Ind., USA, expressly incorporated herein.

Where [6] appears, read: Day 1, 0 hr (immediately prior to dosing).

Broadly, the EC50 is the concentration that produces a half-maximal response. Take `CCOc1cc2c(cc1\C(CC)=C(F)/C=C/C(C)=C/C(=O)O)C(C)(C)CCC2(C)C` [Compound 2, (2E,4E,6E)-7-(3-Ethoxy-5,5,8,8-tetramethyl-5,6,7,8-tetrahydronaphthalen-2-yl)-6-fluoro-3-methylnona-2,4,6-trienoic acid]: the EC50 in series [1] (NA = not active at all as an agonist, read-out: RAR Trans. EC50 α) came to 37 nM; in series [2] (NA = not active at all as an agonist, read-out: RXR Trans. EC50 γ), 9 nM. In addition, the “RAR α efficacy in percentage as compared to the standard compound” value in series [1] (number in brackets) came out at 15%. Besides, the “RXR γ efficacy in percentage as compared to the standard compound” value in series [2] (number in brackets) came out at 18%. Moreover, the Glucose turned out to be 529 ± 123 mg/dL in series [3] (setting [6]); 436 ± 127 mg/dL in series [3] (Day 1, 3 hr); 414 ± 105 mg/dL in series [3] (Day 7, 0 hr); 350 ± 140 mg/dL in series [3] (Day 7, 3 hr). The “effect on serum glucose in diabetic mouse (in words)” value in series [3] (mouse, in vivo) is reported as “capable of lowering serum glucose”. Besides, the Triglycerides in series [4] (setting [6]) came out at 168 ± 74 mg/dL; in series [4] (Day 1, 3 hr), 142 ± 94 mg/dL; in series [4] (Day 7, 0 hr), 157 ± 106 mg/dL; in series [4] (Day 7, 3 hr), 95 ± 33 mg/dL. Also, the “effect on serum triglyceride (in words)” value in series [4] (mouse, in vivo) is recorded as “does not affect”. In addition, the Serum thyroxine in series [5] (50 mg/kg orally for 14 days, mean +/- SD (n = 7)) came out at 1.30 ± 0.28 µg/dL. For the same compound, the “effect on serum T4 (in words)” value in series [5] (mouse, in vivo) is “does not affect”.
